According to patent US9422255B2, “S-imino-S-oxo-iminothiazine compounds as BACE inhibitors, compositions, and their use” (Merck Sharp & Dohme Corp., priority 2013, dated 2016):

Tests used:
[1] = target: soluble human BACE1 catalytic domain (Homo sapiens (Human), UniProt P56817); experiment: BACE1 HTRF FRET Assay; type: biochemical; settings: Ki calculated from IC50 using the Cheng-Prusoff equation; QSY7-APPswe-Eu substrate, pH 5.0; read-out: BACE 1 Ki
Text: Na^+-Acetate pH 5.0; 1% Brij-35; Glycerol; Dimethyl Sulfoxide (DMSO); Recombinant human soluble BACE1 catalytic domain (>95% pure); APP Swedish mutant peptide substrate (QSY7-APP^swe-Eu): QSY7-EISEVNLDAEFC-Europium-amide.
A homogeneous time-resolved FRET assay can be used to determine IC50 values for inhibitors of the soluble human BACE1 catalytic domain. This assay monitors the increase of 620 nm fluorescence that resulted from BACE1 cleavage of an APPswedish APP^swe mutant peptide FRET substrate (QSY7-EISEVNLDAEFC-Europium-amide). This substrate contains an N-terminal QSY7 moiety that serves as a quencher of the C-terminal Europium fluorophore (620 nm Em). In the absence of enzyme activity, 620 nm fluorescence is low in the assay and increased linearly over 3 hours in the presence of uninhibited BACE1 enzyme Inhibition of BACE1 cleavage of the QSY7-APP^swe-Eu substrate by inhibitors is manifested as a suppression of 620 nm fluorescence.
Varying concentrations of inhibitors at 3× the final desired concentration in a volume of 10 ul are preincubated with purified human BACE1 catalytic domain (3 nM in 10 μl) for 30 minutes at 30° C. in reaction buffer containing 20 mM Na-Acetate pH 5.0, 10% glycerol, 0.1% Brij-35 and 7.5% DSMO. […]

[2] = target: purified human autoBACE-2 (Homo sapiens, UniProt Q9Y5Z0); experiment: BACE-2 Assay (BACE-HTRF assay); type: biochemical; settings: Ki calculated from IC50 using the Cheng-Prusoff equation; QSY7-EISEVNLDAEFC-Eu-amide substrate, pH 5.0
Sequence of purified human autoBACE-2 (Q9Y5Z0 63-518 limits assumed): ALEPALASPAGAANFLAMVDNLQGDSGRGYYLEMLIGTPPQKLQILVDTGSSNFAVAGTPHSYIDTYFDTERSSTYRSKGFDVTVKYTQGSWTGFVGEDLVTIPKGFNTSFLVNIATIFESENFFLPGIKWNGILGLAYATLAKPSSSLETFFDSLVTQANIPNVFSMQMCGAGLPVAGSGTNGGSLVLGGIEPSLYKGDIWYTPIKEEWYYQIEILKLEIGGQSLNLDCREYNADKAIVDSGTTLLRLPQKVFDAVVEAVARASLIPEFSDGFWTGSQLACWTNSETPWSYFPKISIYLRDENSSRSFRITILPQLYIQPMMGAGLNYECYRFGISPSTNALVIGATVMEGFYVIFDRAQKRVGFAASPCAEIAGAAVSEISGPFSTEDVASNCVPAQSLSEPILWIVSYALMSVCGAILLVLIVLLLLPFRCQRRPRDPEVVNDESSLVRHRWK
Experimental: Inhibitor IC50s at purified human autoBACE-2 are determined in a time-resolved endpoint proteolysis assay that measures hydrolysis of the QSY7-[…]-Eu-amide FRET peptide substrate (BACE-HTRF assay). […] DMSO is present at 5% final concentration in the assay. Following laser excitation of sample wells at 320 nm, the fluorescence signal at 620 nm is collected for 400 ms following a 50 μs delay on a RUBYstar HTRF plate reader (BMG Labtechnologies). Raw RFU data is normalized to maximum (1.0 nM BACE/DMSO) and minimum (no enzyme/DMSO) RFU values. […] The Ki values are calculated from the IC50 using the Cheng-Prusoff equation.

Sequence of soluble human BACE1 catalytic domain (P56817 75-416): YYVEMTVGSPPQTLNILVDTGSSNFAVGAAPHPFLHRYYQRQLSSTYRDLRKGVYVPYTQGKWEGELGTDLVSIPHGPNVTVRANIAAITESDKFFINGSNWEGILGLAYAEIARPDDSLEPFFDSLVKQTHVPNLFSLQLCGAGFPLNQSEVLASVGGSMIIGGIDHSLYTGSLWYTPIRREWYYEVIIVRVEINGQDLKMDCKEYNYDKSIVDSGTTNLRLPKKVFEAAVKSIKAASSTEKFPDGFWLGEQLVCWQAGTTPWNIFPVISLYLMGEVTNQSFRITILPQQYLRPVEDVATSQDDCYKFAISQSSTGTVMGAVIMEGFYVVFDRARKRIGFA

Ki [1]: 0.29 µM
Ki [2]: 0.106 µM
Compound: CN=S1(=O)C[C@@](C)(c2cc(NC(=O)c3ccc(Cl)cn3)ccc2F)NC(=N)[C@@]1(C)c1ccc(F)cc1 (some centres unmarked) [Example 10a]
